Drawing on ChEMBL document CHEMBL3046005, “New Insecticidal 4-Acetoxy-2-alkenylquinolines” (1996), this text covers Activity for ten compounds.

Holding throughout (format): functional
Test [1] has as its system Bombyx mori. As to the kind of experiment: Insecticidal activity against Bombyx mori larvae assessed as mortality at 40 ug administered topically measured after 48 hr.
Test [2] deals with Bombyx mori. As to the kind of experiment: Insecticidal activity against Bombyx mori larvae assessed as mortality at 10 ug administered topically measured after 48 hr.
The subject of test [3] is Bombyx mori. As to the kind of experiment: Insecticidal activity against Bombyx mori larvae assessed as mortality at 2.5 ug administered topically measured after 48 hr.
Test [4] concerns Laodelphax striatellus. As to the kind of experiment: Insecticidal activity against Laodelphax striatella (small brown planthopper) larvae assessed as mortality at 250 ppm by leaf spray method.
Test [5] deals with Plutella xylostella. As to the kind of experiment: Insecticidal activity against Plutella xylostella (diamondback moth) larvae assessed as mortality at 1000 ppm by leaf spray method.
Test [6] relates to Plutella xylostella. As to the kind of experiment: Insecticidal activity against Plutella xylostella (diamondback moth) larvae assessed as mortality at 500 ppm by leaf spray method.
The test system of test [7] is Plutella xylostella. As to the kind of experiment: Insecticidal activity against Plutella xylostella (diamondback moth) larvae assessed as mortality at 250 ppm by leaf spray method.
Test [8] relates to Bombyx mori. As to the kind of experiment: Insecticidal activity against Bombyx mori larvae assessed as mortality at 0.63 ug administered topically measured after 48 hr.
Test [9] concerns Tetranychus urticae. As to the kind of experiment: Insecticidal activity against Tetranychus urticae (two-spotted spider mite) eggs assessed as mortality at 1000 ppm by leaf spray method.
In test [10] the test system is Tetranychus urticae. As to the kind of experiment: Insecticidal activity against Tetranychus urticae (two-spotted spider mite) eggs assessed as mortality at 500 ppm by leaf spray method.
Test [11] deals with Tetranychus urticae. As to the kind of experiment: Insecticidal activity against Tetranychus urticae (two-spotted spider mite) eggs assessed as mortality at 250 ppm by leaf spray method.
In test [12] the test system is Laodelphax striatellus. As to the kind of experiment: Insecticidal activity against Laodelphax striatella (small brown planthopper) larvae assessed as mortality at 1000 ppm by leaf spray method.
For test [13], the system named is Laodelphax striatellus. As to the kind of experiment: Insecticidal activity against Laodelphax striatella (small brown planthopper) larvae assessed as mortality at 500 ppm by leaf spray method.

In the case of `CCCCCC/C=C/Cc1[nH]c2ccccc2c(=O)c1C`, the Activity amounted to 20% in the test on Bombyx mori [1], 0% in the test on Bombyx mori [2] and 0% in the test on Bombyx mori [3].
With `CCCCCC/C=C/C(O)c1nc2ccccc2c(OC(C)=O)c1C` (configuration not stated), the Activity with Bombyx mori [1] worked out at 85%; in the test with Bombyx mori [2], 10%; in the test on Bombyx mori [3], 0%.
Taken in the same sequence, the figures for `CCCCC/C=C/C=C/c1nc2ccccc2c(OC(C)=O)c1C` were 100%, 0% and 0%.
For the compound `CCCCCCC/C=C\c1nc2ccccc2c(OC(C)=O)c1C`, the Activity was found to be 76% in the test with Laodelphax striatellus [4]; 100% with Plutella xylostella [5]; 100% in the test with Plutella xylostella [6]; 100% with Plutella xylostella [7]; 100% with Bombyx mori [1]; 100% with Bombyx mori [2]. Besides, the Activity with Bombyx mori [3] was determined as 100%; in the test with Bombyx mori [8] it was 65%; in the test on Tetranychus urticae [9], 100%; with Tetranychus urticae [10], 100%; with Tetranychus urticae [11], 68.2%; in the test on Laodelphax striatellus [12] it was 100%. Besides, in the test with Laodelphax striatellus [13], the Activity was 94%.
In the case of `CCCCCCC/C=C/c1nc2ccccc2c(OC(C)=O)c1C`, the Activity was determined as 100% with Bombyx mori [1], 100% with Bombyx mori [2], 100% with Bombyx mori [3] and 0% in the test on Bombyx mori [8].
Take `CCCCCC/C=C/Cc1nc2ccccc2c(OC(C)=O)c1C`: the Activity in the test with Bombyx mori [1] was 100%; in the test with Bombyx mori [2], 100%; in the test with Bombyx mori [3] it was 100%; in the test on Bombyx mori [8] it was 15%.
Consider `CCCCCC/C=C/C(O)c1nc2ccccc2c(O)c1C` (configuration not stated), for which the Activity is recorded as 5% with Bombyx mori [1], 0% in the test with Bombyx mori [2] and 0% with Bombyx mori [3].
In the case of `CCCCC/C=C/C=C/c1nc2ccccc2c(O)c1C`, the Activity in the test with Bombyx mori [1], in the test on Bombyx mori [2] and in the test with Bombyx mori [3] was 0% each time.
On to `CCCCCCC/C=C\c1nc2ccccc2c(O)c1C`, for which the Activity in the test with Bombyx mori [1] is recorded as 70%; in the test on Bombyx mori [2] it was 20%; in the test on Bombyx mori [3], 0%.
With `CCCCCCC/C=C/c1nc2ccccc2c(O)c1C`, the Activity in the test on Bombyx mori [1], with Bombyx mori [2] and with Bombyx mori [3] was 0% throughout.
